Reference: patent US20220177587A1, “METHODS AND USES OF VARIANT CD80 FUSION PROTEINS AND RELATED CONSTRUCTS” (Alpine Immune Sciences, Inc., priority 2018, published 2022)

Legend:
[1] = tested on: huPD-L1/MC38 cells; assay: huPD-L1 MC38 tumor model, combination with anti-CTLA-4; type: in vivo, mouse
Method: Eight-week old female C57/BL6NJ mice (The Jackson Laboratories, Sacramento, Calif.) were implanted subcutaneously with 1.5×10^6 huPD-L1/MC38 cells (described in Example 27. On days 8, 11 or 14 post-tumor cell implant mice, the tested molecules were delivered through intraperitoneal (IP) injection as set forth in Table E40. Tumor volume was determined substantially as described in Example 27.

[2] = tested on: huPD-L1-expressing MC38 tumors; assay: huPD-L1 MC38 tumor model, IP or IT delivery; type: in vivo, mouse
Method: The MC38 cell line was transduced with human PD-L1 (huPD-L1) Subconfluent cells (˜80% confluent) were harvested on the day of implantation (study day 0), washed twice and brought to a final concentration of 15×10^6 cells/mL in DPBS. Female C57BL/6NJ mice (Jackson Labs, USA) were implanted subcutaneously with approximately 1.5×10^6 cells (0.1 mL) in the right mid-flank region.
On day 7, mice were randomized into six groups, with each group having a similar mean tumor volume (46.6 mm^3).
Tumor volume was measured as described in Example 21 to assess anti-tumor activity. Median tumor growth curves among individual treated mice over time were plotted.
On day 11 post-tumor cell implant and prior to dosing of test articles, five mice from each of Group 1-4 and Group 6 were sacrificed, and the tumors were harvested, weighed and processed for ex vivo tumor analysis. The MC38 cells at time of implant and tumors harvested from a subset of mice on day 11 by enzymatic digestion were evaluated for expression of huPD-L1 or human IgG (to detect Fc of cell-bound test molecules) by flow cytometry. The percent positive and median fluorescent intensity (MFI) of huPD-L1 and huIgG were quantified on the CD45-negative subset of tumor cells.
Tumors at day 11 were also evaluated for CD8+ T cells and for antigen-specific CD8+ T cells within the CD3+ cell population. p15E is an MHC class I restricted T cell antigen expressed in the MC38 tumor cell lines derived from C57BL/6 mice. A mouse MHC class I p15E tetramer labeled with PE (MBL International Corp.) was used to detect the p15E-MHC class I restricted T cell receptor.

[3] = tested on: PBMC obtained from CMV seropositive donor; assay: Cytomegalovirus (CMV) antigen-specific T cell functional assay; type: cell-based, human
Method: Peripheral blood mononuclear cells (PBMC) obtained from CMV seropositive donor were thawed and CMV lysate added at 1 μg/mL to 250,000/well PBMC. […] In addition, the anti-PD-1 antibody alone was also tested. An Fc only molecule was also tested as control. Supernatant was collected 48 hours after incubation to assay IL-2 by ELISA.
The multivalent variant CD80 IgSF domain fusion proteins were assessed to test for IL-2 production in the CMV assay substantially as described in Example 22. Exemplary multivalent variant CD80 IgSF domain fusion proteins generated as described above were tested at various concentrations from 100000 pM to 46 pM

[4] = Mouse PK model; type: in vivo; conditions: mouse PK model estimate
Source text: (§1) A PK model was designed as a two compartment model with intercompartmental distribution (Q) between the first compartment (Central Compartment, V1) and the second compartment (Peripheral Compartment, V2). To capture intraperitoneal (IP) or subcutaneous (SC) injection routes, a third compartment (Depot Compartment) was included with a first-order rate constant (Ka) linking the third compartment uni-directionally to the first compartment. The model also included a constant F to account for loss in the amount of drug available to diffuse from the third compartment (Depot Compartment) to the first compartment (Central Compartment, V1) due to IP or SC injection. The total amount of available drug in the third compartment (Depot Compartment) is described as F×Dose. For intravenous injections (IV), the third compartment (Depot Compartment) was omitted.
Drug clearance (CL) from the first compartment (Central Compartment, V1) was modeled differently for each species. In the mouse model, a time-dependent increase in clearance due to the formation of anti-drug antibodies was accounted for as follows:
(§2) For monkeys, linear clearance from the first compartment (Central Compartment, V1) was assumed.
PK was also compared in tumor-bearing versus non-tumor-bearing mice. […] All treatments were administered IP. PK was determined in tumor-bearing mice in all groups and compared to the predicted PK in non-tumor bearing mice.

[5] = target: CD28 (Homo sapiens, UniProt P10747); assay: Jurkat/IL2 + K562/OKT3/PD-L1 reporter assay; type: cell-based; design: host or cells: Jurkat cells expressing an IL-2-luciferase reporter; conditions: IgV-Fc (inert); various concentrations; FIG. 5
[6] = tested on: primary human pan T cells; assay: Cytokine production following PD-L1-dependent costimulation; type: cell-based; conditions: mitomycin-c treated K562/OKT3/PDL1 aAPC; FIG. 6
[7] = Monkey PK model; type: in vivo, cynomolgus monkey; conditions: monkey PK model estimate
Source text: as §1, §2

[8] = tested on: huPD-L1/MC38 cells; assay: huPD-L1 MC38 tumor model, combination with oxaliplatin; type: in vivo, mouse
Method: To test the anti-tumor activity of the exemplary variant, it was evaluated alone or in combination with the platinum-based chemotherapeutic agent, oxaliplatin, in mice bearing human PD-L1-expressing MC38 tumors, which is a syngeneic mouse colon carcinoma solid tumor model.
The huPD-L1 MC38 cell line was generated by transducing parental MC38 cells with huPD-L1 using viral transduction. Eight-week old female C57/BL6NJ mice (The Jackson Laboratories, Sacramento, Calif.) were implanted subcutaneously with 0.5×10^6 huPD-L1/MC38 cells. For injections, 0.1 mL of cells (0.5×10^6 cells) were injected subcutaneously (SC) in the right mid-flank region.
On day 1, mice were randomized into four groups of 10 mice each, with all mice in each group having about equal mean tumor volumes (˜108 mm^3). Tumors were measured with electronic calipers two-dimensionally twice weekly, beginning on day 7 post-tumor cell implant (referred to as “day 1”). Tumor volume was calculated as length×(width×2)×0.5, with the length being the longer of the two measurements.
As shown, 30% of the mice in the monotherapy group were tumor free by the end of the study.

[9] = in combination with oxaliplatin

For “H18Y/A26E/E35D/M47L/V68M/A71G/D90G: variant CD80 IgV-Fc (inert), IgV SEQ ID NO:491”, the “tumor growth over time” value ([1]; in combination with anti-CTLA-4) was “significantly greater reduction in tumor growth over time was observed than with either agent alone”, the antitumor activity ([1]; monotherapy) was “had potent antitumor activity” and the “percent of p15E-specific CD8+ T cells in tumors” value ([2]; 500 or 1500 μg IP or 100 μg IT, day 11) was “significantly greater percent of p15E-specific CD8+ T cells as compared to Fc control-treated mice”. For the same substance, the anti-tumor growth activity ([2]; IT injection 100 μg on days 8, 11 and 14) was “substantial anti-tumor growth activity”, the “anti-tumor activity (tumor volume)” value ([2]; single IP injection 100, 500, 1500 μg) was “dose-dependent increase in anti-tumor activity compared to Fc control treatment” and the IL-2 production ([3]; alone, 48 hours, FIG. 23) was “showed augmentation of IL-2 production compared to the Fc only control”. For the same substance, the IL-2 production ([3]; in combination with 50 nM anti-PD-1 antibody (nivolumab)) was “greater increase in IL-2 production compared to levels of IL-2 production in the presence of either molecule alone”, the CL [4] was 1.34 mL/day and the F [4] was 99%. For the same substance, the Ka [4] was 4.53 day⁻¹, the Q [4] was 26.5 mL/day and the V1 [4] was 1.94 mL. For the same substance, the V2 [4] was 8.88 mL, the β ([4]; time-dependent clearance constant) was 0.0685 day⁻¹ and the “PD-L1 dependent CD28 costimulation (luciferase activity)” value [5] was “induced PD-L1 dependent CD28 costimulation in a dose-dependent manner”. For the same substance, the “IL-2 secretion in culture supernatants” value [6] was “resulted in IL-2 secretion in culture supernatants”, the CL [7] was 1.31 mL/h/kg and the F [7] was 66.4%. For the same substance, the Ka [7] was 0.728 day⁻¹, the Q [7] was 4.37 mL/h/kg and the V1 [7] was 0.0509 L/kg. The V2 [7] was 0.158 L/kg, the tumor free mice [8, 9] was 90% and the “tumor growth over time” value [8, 9] was “significantly greater reductions in tumor growth over time were observed than with either of the agents alone”. For the same substance, the “mean TGI” value ([8]; in combination with oxaliplatin, day 25) was about 100%, the median tumor volume ([8]; in combination with oxaliplatin, eleven days after start of dosing) was “dropped to zero” and the antitumor activity ([8]; monotherapy) was “had potent antitumor activity”. For the same substance, the “tumor free mice by the end of the study” value ([8]; monotherapy) was 30%.
